Assay results reported in patent US20110201629A1, “CYCLOHEXYL AMIDE DERIVATIVES AS CRF RECEPTOR ANTAGONISTS” (priority 2010, published 2011).

Biological target: T1, CRF-1 (UniProt P34998)
T1 sequence (P34998 1-415): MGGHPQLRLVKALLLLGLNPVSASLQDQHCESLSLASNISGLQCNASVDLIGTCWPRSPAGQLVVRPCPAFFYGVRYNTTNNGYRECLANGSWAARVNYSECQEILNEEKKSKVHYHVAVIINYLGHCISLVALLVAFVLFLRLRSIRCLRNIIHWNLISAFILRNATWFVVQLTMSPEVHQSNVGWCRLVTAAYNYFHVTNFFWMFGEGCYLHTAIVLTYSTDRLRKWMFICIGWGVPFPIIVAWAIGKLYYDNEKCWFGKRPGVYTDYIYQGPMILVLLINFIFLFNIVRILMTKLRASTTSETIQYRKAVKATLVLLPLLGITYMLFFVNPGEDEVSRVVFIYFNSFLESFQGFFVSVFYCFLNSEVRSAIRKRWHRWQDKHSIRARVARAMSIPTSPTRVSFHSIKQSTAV
Assay: CRF-1 receptor antagonism, HTRF cAMP assay in CHO cells
Format: cell-based, human
Settings: Biological data Table 1; inhibition of CRF induced cAMP response in CHO cells, EC50 concentration of CRF
Protocol: The CRF-1 and CRF-2 receptor antagonistic activity of the agents of the invention has been determined in vitro in the following assay:
Chinese hamster ovary (CHO) cells expressing either the human or rat recombinant CRF-1 or human CRF-2α (Chen et al, Proc Natl Acad Sci USA 90, 8967-8971, 1993; Liaw et al, Endocrinology 137, 72-77, 1996) are propagated in Dulbecco's modified Eagle medium supplemented with 10% foetal calf serum, non-essential amino acids, 100 U/ml penicillin, 100 mg/l streptomycin and 1 g/l geneticin. CHO cells expressing the rat CRF-2β receptor (Wu et al, Endocrinology 148, 1675-1687, 2007) are propagated in HAM's-F12 Glutamax supplemented with 10% foetal calf serum, 100 IU/ml penicillin, 100 mg/l streptomycin, 600 μg/ml hygromycin, 10 μg/ml blasticidin and induced with 1 μg/ml of tetracyclin for 24 hours prior to experimentation. For cyclic AMP determinations the Homogeneous Time-Resolved Fluoresce (HTRF) cAMP dynamic 2 kit (Cisbio International, France) was used as per manufacturers' instructions. CHO cells, previously cryopreserved at 3×10^6 viable cells per ml of cell recovery media (Cat no. 12648-010, Invitrogen), were thawed, centrifuged for 7 mins at 1200 rpm and resuspended in serum free media to give a concentration of 0.5×10^6 cells per/ml. Compounds of the invention, prepared in DMSO, and subsequently diluted 50 fold in assay buffer (1× Hanks balanced salt solution, 0.2% (w/v) bovine serum albumin, 1.7 mM isobutylmethylxanthine and 10 mM Hepes, pH7.4) were then added onto the 384 well low volume black assay plate (Corning Inc, US, Cat. 3676). 2000 cells/well were then added to the assay plate further diluting the compound 2 fold and then the plate was incubated for 15 mins at room temperature. Following incubation, buffer containing a 5 times final concentration of agonist, typically r/h CRF is added to the plate and incubated for 30 min at room temperature. Finally, d2 dye labeled cAMP and cryptate labeled anti-cAMP antibody, both made in lysis buffer, are added to the plate followed by a settling period of 1 hour at room temperature. During the settling period cAMP produced by the cells competes with the d2 labelled cAMP for the anti-cAMP cryptate. The plate is read on the Pherastar (BMG, Germany). Increasing levels of endogenous cAMP produced by cells can be followed by a decrease of FRET fluorescent signal and vice versa. Values represented by a change in arbitrary fluorescence units are converted into cAMP concentrations by use of a standard curve, the reagents for which are supplied with the kit. Antagonist dose response curves (1 nM-31.6 μM) are constructed and tested in the presence of an EC50 concentration of CRF relevant to the receptor (hCRF-1=3 nM, hCRF-2α=2 nM, rCRF-1=1 nM and rCRF-2β=0.1 nM). IC50 values of antagonists are calculated by fitting the percent inhibition of CRF induced cAMP response by increasing concentrations of the antagonists. The fit is performed using the nonlinear logistic function of the Activitybase software package v 5.4.5.27 (IDBS, UK).

SMILES	IC50 [nM]
O=C(N[C@H]1CC[C@H](CN2C(=O)Cc3ccc(Cl)cc32)CC1)c1cc(C(F)(F)F)ccc1Cl [Example 1.1, Trans-2-Chloro-N-[4-(6-chloro-2-oxo-2,3-dihydro-indol-1-ylmethyl)-cyclohexyl]-5-trifluoromethyl-benzamide]	65
O=C(N[C@H]1CC[C@H](CN2C(=O)C(F)(F)c3ccc(Cl)cc32)CC1)c1cc(C(F)(F)F)ccc1Cl [Example 2.1, Trans-2-chloro-N-[4-(6-chloro-3,3-difluoro-2-oxo-2,3-dihydro-indol-1-ylmethyl)-cyclohexyl]-5-trifluoromethyl-benzamide]	149
Cc1ncc(Cl)cc1C(=O)N[C@H]1CC[C@H](CN2C(=O)C(C)(C)c3cccnc32)CC1 [Example 2.3, Trans-5-chloro-N-[4-(3,3-dimethyl-2-oxo-2,3-dihydro-pyrrolo[2,3-b]pyridin-1-ylmethyl)-cyclohexyl]-2-methyl-nicotinamide]	242
O=C(N[C@H]1CC[C@H](CN2C(=O)Cc3cccnc32)CC1)c1cc(C(F)(F)F)ccc1Cl [Example 2.4, Trans-2-chloro-N-[4-(2-oxo-2,3-dihydro-pyrrolo[2,3-b]pyridin-1-ylmethyl)-cyclohexyl]-5-trifluoromethyl-benzamide]	900
O=C(N[C@H]1CC[C@H](CN2C(=O)C3(CC3)c3cc(F)ccc32)CC1)c1cc(C(F)(F)F)ccc1Cl [Example 2.5, Trans-2-chloro-N-{-4-((5′-fluoro-2′-oxospiro[cyclopropane-1,3′-indoline]-1′-yl)methyl)cyclohexyl}-5-(trifluoromethyl)benzamide]	9
COc1ccc2c(c1)C(C)(C)C(=O)N2C[C@H]1CC[C@H](NC(=O)c2cc(C(F)(F)F)ccc2Cl)CC1 [Example 2.7, Trans-2-Chloro-N-[4-(5-methoxy-3,3-dimethyl-2-oxo-2,3-dihydro-indol-1-ylmethyl)-cyclohexyl]-5-trifluoromethyl-benzamide]	166
COc1cc2c(cn1)C(C)(C)C(=O)N2C[C@H]1CC[C@H](NC(=O)c2cc(C(F)(F)F)ccc2Cl)CC1 [Example 2.8, Trans-2-Chloro-N-[4-(6-methoxy-3,3-dimethyl-2-oxo-2,3-dihydro-pyrrolo[3,2-c]pyridin-1-ylmethyl)-cyclohexyl]-5-trifluoromethyl-benzamide]	347

Now from value to compound:

IC50 [nM]	SMILES
16	C[C@]1(F)C(=O)N(C[C@H]2CC[C@H](NC(=O)c3cc(C(F)(F)F)ccc3Cl)CC2)c2ccccc21 [Example 2.9, Trans-2-Chloro-N-[4-((R)-3-fluoro-3-methyl-2-oxo-2,3-dihydro-indol-1-ylmethyl)-cyclohexyl]-5-trifluoromethyl-benzamide]
201	C[C@@]1(F)C(=O)N(C[C@H]2CC[C@H](NC(=O)c3cc(C(F)(F)F)ccc3Cl)CC2)c2ccccc21 [Example 2.10, Trans-2-Chloro-N-[4-((S)-3-fluoro-3-methyl-2-oxo-2,3-dihydro-indol-1-ylmethyl)-cyclohexyl]-5-trifluoromethyl-benzamide]
275	CCn1c(=O)n(C[C@H]2CC[C@H](NC(=O)c3cc(Cl)cnc3C)CC2)c2ccncc21 [Example 2.42, Trans-5-Chloro-N-[4-(3-ethyl-2-oxo-2,3-dihydro-imidazo[4,5-c]pyridin-1-ylmethyl)-cyclohexyl]-2-methyl-nicotinamide]
416	Cc1ncc(Cl)cc1C(=O)N[C@H]1CC[C@H](Cn2c(=O)n(C)c3nccc(C)c32)CC1 [Example 2.43, Trans-5-Chloro-N-[4-(3,7-dimethyl-2-oxo-2,3-dihydro-imidazo[4,5-b]pyridin-1-ylmethyl)-cyclohexyl]-2-methyl-nicotinamide]
612	Cc1ncc(C(F)(F)F)cc1C(=O)N[C@H]1CC[C@H](CN2C(=O)C(C)(C)c3ccccc32)CC1 [Example 2.52, Trans-N-[4-(3,3-Dimethyl-2-oxo-2,3-dihydro-indol-1-ylmethyl)-cyclohexyl]-2-methyl-5-trifluoromethyl-nicotinamide]
